# In patent US6803480B2, “Diphenylmethane derivatives” (Bayer Aktiengesellschaft, priority 2000, dated 2004):
# Test: T3 promoter assay cell test (luciferase reporter)
# Format: cell-based
# Conditions: Homo sapiens; HepG2 cells, luciferase induction, costimulator retinoic acid, incubation 48 or 72 hours, four replicates
# Procedure: Their activity can be tested, for example, in vitro by the following T3 promoter assay cell test:
# The test is carried out with a stably transfected human HepG2 hepatocarcinoma cell which expresses a luciferase gene under the control of a thyroid hormone-regulated promoter. The vector used for the transfection has upstream of the luciferase gene a minimal thymidine kinase promoter with a thyroid hormone-responsive element (TRE) which consists of two inverted palindromes each of 12 bp and of an 8 bp spacer.
# For the test, the cell cultures are seeded in Eagle's minimal essential medium in 96-well plates with the following additions: glutamine, tricine, sodium pyruvate, nonessential amino acids, insulin, selenium and transferrin. The cultures are grown at 37° C. with a 10% CO2 atmosphere for 48 hours. Then serial dilutions of test substance or reference compound (T3, T4) and costimulator retinoic acid are added to the test cultures and the latter are incubated as previously for a further 48 or 72 hours. Each substance concentration is tested in four replicates. To determine the luciferase induced by T3 or other substances, the cells are subsequently lysed by adding a Triton- and luciferin-containing buffer and measured immediately in a luminometer. The EC50 values for each compound are calculated (see Table 1).
row,EC50,SMILES
1,0.14 nM,"Cc1cc(NC(=O)C(=O)O)cc(C)c1Cc1ccc(O)c(C(C)C)c1 [Example 2, 2-[4-(4-Hydroxy-3-isopropylbenzyl)-3,5-dimethylanilino]-2-oxoacetic acid]"
2,0.23 nM,"Cc1cc(NC(=O)C(=O)O)cc(C)c1Cc1ccc(O)c(Cc2ccc(F)cc2)c1 [Example 4, ({4-[3-(4-Fluorobenzyl)-4-hydroxybenzyl]-3,5-dimethylphenyl}amino)(oxo)acetic acid]"
3,4.3 nM,"COc1ccc(Cc2c(C)cc(NC(=O)C(=O)O)cc2C)cc1Cc1ccc(F)cc1 [Example 5, ({4-[3-(4-Fluorobenzyl)-4-methoxybenzyl]-3,5-dimethylphenyl}amino)(oxo)acetic acid]"
